The results in this text go back to article PMC9636434, “Discovery of small molecule agonists of the Relaxin Family Peptide Receptor 2” (Communications Biology, 2022).

Where “and” joins values, the source holds several entries; their conditions need not be identical. Equal values may be shown once.

Experiment [1] deals with T1, human RXFP1 (Homo sapiens, UniProt Q9HBX9).
T1 construct: FLAG (N); expressed in transfected cells
T1 sequence (Q9HBX9 1-757): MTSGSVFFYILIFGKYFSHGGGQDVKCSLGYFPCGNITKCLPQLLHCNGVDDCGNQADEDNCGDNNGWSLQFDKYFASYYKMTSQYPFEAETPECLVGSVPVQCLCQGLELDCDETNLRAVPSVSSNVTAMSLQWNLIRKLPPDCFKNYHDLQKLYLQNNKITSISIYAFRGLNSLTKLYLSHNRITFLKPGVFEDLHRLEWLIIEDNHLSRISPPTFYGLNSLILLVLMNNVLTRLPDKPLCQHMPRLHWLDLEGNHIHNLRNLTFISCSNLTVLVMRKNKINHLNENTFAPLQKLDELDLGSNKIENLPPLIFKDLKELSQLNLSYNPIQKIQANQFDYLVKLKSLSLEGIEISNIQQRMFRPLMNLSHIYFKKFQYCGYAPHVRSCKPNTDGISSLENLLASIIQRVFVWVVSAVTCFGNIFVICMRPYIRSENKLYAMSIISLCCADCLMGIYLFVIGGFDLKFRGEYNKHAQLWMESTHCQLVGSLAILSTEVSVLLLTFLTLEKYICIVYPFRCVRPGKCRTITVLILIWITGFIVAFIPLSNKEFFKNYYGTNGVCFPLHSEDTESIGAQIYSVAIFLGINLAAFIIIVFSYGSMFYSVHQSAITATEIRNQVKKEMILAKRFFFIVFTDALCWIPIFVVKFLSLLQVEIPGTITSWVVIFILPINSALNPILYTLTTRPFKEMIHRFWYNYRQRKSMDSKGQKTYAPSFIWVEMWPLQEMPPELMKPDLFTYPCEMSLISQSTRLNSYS
The experiment is described as follows: HTRF cAMP counter-screen in HEK293T cells expressing human RXFP1. The experiment is classed as cell-based. Conditions: for % Eff (cAMP): human RXFP1, experiments (1)-(3). On the procedure:
The HTRF Gs dynamic cAMP assay kit (CisBio, Bedford, MA) was used to measure intracellular cAMP accumulation in HEK293T cells (ATCC, Manassas, VA)[56]. […] The cell stock was verified mycoplasma free and authenticated by ATCC. Transient transfection was accomplished by treating cells in a 6-well plate with a mixture of 2 μg plasmid and 6 μL Lipofectamine 2000 (Invitrogen, Waltham, MA) per manufacturer’s protocol and incubating overnight. For cAMP measurement in 96-well format, HEK293T cells stably transfected with human RXFP2 (HEK-RXFP2), human RXFP1 (HEK-RXFP1), mouse Rxfp1 (HEK-Rxfp1) or transiently transfected with human RXFP1-RXFP2 chimeric receptors were seeded between 7500 and 30,000 cells per well, depending on cell line responsiveness, in serum-free DMEM medium and incubated overnight at 37 °C, 5% CO2. After 18 h, cells were treated with a titration of compound, 2 μM forskolin, or DMSO vehicle. Control wells were also treated with a titration of INSL3 (Phoenix Pharmaceuticals, Burlingame, CA) or human recombinant relaxin 2 (Peprotech, Cranbury, NJ). For the RXFP2 antagonist experiment, cells were co-treated with 0.28 μM compound or 30 nM INSL3 and a titration of the INSL3 B dimer antagonist[38],[39]. For the INSL3 allosteric modulation experiment, cells were co-treated with 0.025, 0.0025, or 0.00025 μM of compound and a titration of INSL3. Cells were incubated for 1 h at 37 °C, 5% CO2, and then kit cAMP-d2 and anti-cAMP antibody were added per manufacturer protocol. Plates were incubated for 1 h at room temperature and the signal was read on a CLARIOstar plate reader (BMG Labtech, Ortenberg, Germany) at 665 and 620 nm emission wavelengths. […]
receptors. HTRF cAMP counter-screen of RXFP2 agonists in HEK293T cells expressing a human RXFP1 and b mouse RXFP1. Relaxin 2 was used as positive control for RXFP1 receptor activation. Results are expressed as mean ± SEM of 3
On the technique in general: Time-resolved FRET reads energy transfer from a long-lived donor to a nearby acceptor.

For experiment [2], the target named is T2, human FSHR (Homo sapiens, UniProt P23945).
T2 sequence (P23945 18-695): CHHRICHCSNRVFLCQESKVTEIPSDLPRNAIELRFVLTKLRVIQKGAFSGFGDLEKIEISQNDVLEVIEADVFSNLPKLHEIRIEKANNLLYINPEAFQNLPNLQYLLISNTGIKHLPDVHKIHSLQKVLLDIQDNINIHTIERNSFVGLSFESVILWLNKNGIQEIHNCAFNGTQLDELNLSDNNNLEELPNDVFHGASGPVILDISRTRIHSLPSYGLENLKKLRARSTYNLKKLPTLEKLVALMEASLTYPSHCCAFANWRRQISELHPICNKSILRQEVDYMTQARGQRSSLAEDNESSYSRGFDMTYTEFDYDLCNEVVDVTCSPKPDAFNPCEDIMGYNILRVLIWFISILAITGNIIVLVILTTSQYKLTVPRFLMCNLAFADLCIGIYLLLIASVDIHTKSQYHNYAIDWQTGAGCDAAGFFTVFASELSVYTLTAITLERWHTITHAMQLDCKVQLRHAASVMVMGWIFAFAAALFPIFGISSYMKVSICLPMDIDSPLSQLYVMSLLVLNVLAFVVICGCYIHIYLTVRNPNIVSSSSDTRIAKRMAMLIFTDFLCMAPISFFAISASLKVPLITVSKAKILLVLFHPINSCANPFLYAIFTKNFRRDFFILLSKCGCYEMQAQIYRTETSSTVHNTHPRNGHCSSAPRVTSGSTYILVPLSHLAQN
The experiment in a line: HitHunter cAMP XS+ assay, cAMP Hunter cell line FSHR. The experiment is classed as cell-based. To be noted: for RLU: replicates (1),(2). From the text:
Results are reported as raw RLU values and represent the
mean ± SEM of 2 technical replicates.

`O=C1Nc2ccc(-c3cc(C(F)(F)F)cc(C(F)(F)F)c3)cc2C(=O)N2CCN(C(=O)COc3ccc(OC(F)(F)F)cc3I)C[C@@H]12` [compound 6641]: the “activation of human RXFP1 receptor” value in experiment [1] (HTRF cAMP) is “do not activate”. For the same molecule, the “% Eff (cAMP)” value in experiment [1] (Log [M] -4.60) was -1.3757% and -1.734% and -1.01%; in experiment [1] (Log [M] -5.60), -1.852% and -1.326% and -2.683%; in experiment [1] (Log [M] -6.60) it was -1.88% and -0.1839% and -0.6843%; in experiment [1] (Log [M] -7.60), -1.108% and 0.09011% and -0.3682%. For the same molecule, in experiment [2] (Hit Hunter cAMP assay), the “cAMP response through FSHR” value was “did not result in an increase of cAMP level”. Moreover, the RLU was 1000 RLU and 1200 RLU in experiment [2] (Log [M] -4.70); 1080 RLU in experiment [2] (Log [M] -5.18); 960 RLU and 1040 RLU in experiment [2] (Log [M] -5.65); 880 RLU and 920 RLU in experiment [2] (Log [M] -6.13); 840 RLU and 960 RLU in experiment [2] (Log [M] -6.61); 960 RLU and 1040 RLU in experiment [2] (Log [M] -7.08). The RLU in experiment [2] (Log [M] -7.56) is 1280 RLU and 720 RLU; in experiment [2] (Log [M] -8.04), 880 RLU and 960 RLU; in experiment [2] (Log [M] -8.52), 1040 RLU and 1080 RLU; in experiment [2] (Log [M] -8.99) it was 720 RLU and 880 RLU.
